Where “and” joins values, the source holds several entries; their conditions need not be identical. Identical values can stand only once. Toxic doses and inconclusive results are not listed.

The assay relates to L1210 leukemia ip in BDF1 mice, survival T/C. The experiment in a line: NCI In Vivo Anticancer Drug Screen. Data for tumor model L1210 Leukemia (intraperitoneal) in B6D2F1 (BDF1) mice. The note with it: endpoint: mean survival time, higher = longer survival. The gist of the method:
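Read-out is survival time, reported as the treated-group measurement over the vehicle-control measurement.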

[1] abbreviates: dose: 100.0 mg/kg/injection, schedule: Q01DX009 (ip), vehicle: saline with Tween-80.
The mark [2] stands for this setting: dose: 200.0 mg/kg/injection, schedule: Q01DX009 (ip), vehicle: saline with Tween-80.
[3] abbreviates: dose: 400.0 mg/kg/injection, schedule: Q01DX009 (ip), vehicle: saline with Tween-80.
[4] abbreviates: dose: 200.0 mg/kg/injection, schedule: Q04DX003 (ip), vehicle: Klucel (hydroxypropylcellulose) (HPC).
Setting [5] is: dose: 400.0 mg/kg/injection, schedule: Q04DX003 (ip), vehicle: Klucel (hydroxypropylcellulose) (HPC).
Setting [6] is: dose: 100.0 mg/kg/injection, schedule: Q04DX003 (ip), vehicle: saline with Tween-80.
Setting [7] is: dose: 200.0 mg/kg/injection, schedule: Q04DX003 (ip), vehicle: saline with Tween-80.
The mark [8] stands for this setting: dose: 400.0 mg/kg/injection, schedule: Q04DX003 (ip), vehicle: saline with Tween-80.
The mark [9] stands for this setting: dose: 100.0 mg/kg/injection, schedule: Q04DX003 (ip), vehicle: Klucel (hydroxypropylcellulose) (HPC).
[10] abbreviates: dose: 100.0 mg/kg/injection, schedule: Q01DX009 (ip), vehicle: Klucel (hydroxypropylcellulose) (HPC).
[11] abbreviates: dose: 100.0 mg/kg/injection, schedule: Q04DX002 (ip), vehicle: Klucel (hydroxypropylcellulose) (HPC).
[12] abbreviates: dose: 200.0 mg/kg/injection, schedule: Q04DX002 (ip), vehicle: Klucel (hydroxypropylcellulose) (HPC).
Setting [13] is: dose: 400.0 mg/kg/injection, schedule: Q04DX002 (ip), vehicle: Klucel (hydroxypropylcellulose) (HPC).

Regarding `[Cl][Pt][Cl].[NH-]CCN1CC1`, the T/C reads like this: (dose: 5.0 mg/kg/injection, schedule: Q01DX009 (ip), vehicle: Klucel (hydroxypropylcellulose) (HPC)) 114 % of control; (dose: 10.0 mg/kg/injection, schedule: Q01DX009 (ip), vehicle: Klucel (hydroxypropylcellulose) (HPC)) 110 % of control; (dose: 20.0 mg/kg/injection, schedule: Q01DX009 (ip), vehicle: Klucel (hydroxypropylcellulose) (HPC)) 98 % of control.
Consider `O=Cc1ccc(O)c(Br)c1`, for which the T/C reads like this: under setting [1], 100 % of control; under setting [2], 109 % of control; under setting [3], 88 % of control.
For `O=C1c2cc([N+](=O)[O-])ccc2-c2cc(Cl)c(Cl)cc21`, the T/C under setting [4] was 91 % of control and the T/C under setting [5] is 94 % of control.
Consider `CC12CCC(O)CC1=CCC1C2CCC2(C)C(C(O)CC(O)(C(F)(F)F)C(F)(F)F)CCC12` (stereo unspecified), for which the T/C reads like this: under setting [6], 92 % of control; under setting [7], 93 % of control; under setting [8], 93 % of control.
On to `N#CC1OB(O)c2ccccc21` (stereo unspecified), for which the T/C (dose: 100.0 mg/kg/injection, schedule: Q04DX003 (ip), vehicle: saline) is 93 % of control; the T/C (dose: 200.0 mg/kg/injection, schedule: Q04DX003 (ip), vehicle: saline) was 100 % of control; the T/C (dose: 400.0 mg/kg/injection, schedule: Q04DX003 (ip), vehicle: saline) is 93 % of control.
For the molecule `CCCCC(=O)N(CC)C(=NCC)c1ccc(NC(=O)c2ccc(C(=O)Nc3ccc(C(=NCC)N(CC)C(=O)CCCC)cc3)cc2)cc1`, the T/C runs as follows: (dose: 25.0 mg/kg/injection, schedule: Q01DX015 (ip), vehicle: methylcellulose (MC)) 90 % of control; (dose: 50.0 mg/kg/injection, schedule: Q01DX015 (ip), vehicle: methylcellulose (MC)) 90 % of control; (dose: 100.0 mg/kg/injection, schedule: Q01DX015 (ip), vehicle: methylcellulose (MC)) 96 % of control; (dose: 200.0 mg/kg/injection, schedule: Q01DX015 (ip), vehicle: methylcellulose (MC)) 94 % of control.
On to `CC1(C)CC(N=Cc2ccccc2O)CC(C)(C)N1O.CC1(C)CC(N=Cc2ccccc2O)CC(C)(C)N1O.[Co]`, for which the T/C runs as follows: under setting [6], 89 % of control; under setting [7], 92 % of control.
Turning to `O/N=C\CC/C=N\O`, the T/C was 105 % of control under setting [9], 98 % of control under setting [4] and 100 % of control under setting [5].
For `CN=NNc1ccccc1`, the T/C was 114 % of control (dose: 12.0 mg/kg/injection, schedule: Q01DX009 (ip), vehicle: saline); 100 % of control (dose: 12.5 mg/kg/injection, schedule: Q01DX009 (ip), vehicle: Klucel (hydroxypropylcellulose) (HPC)); 118 % of control (dose: 18.0 mg/kg/injection, schedule: Q01DX009 (ip), vehicle: saline); 97 % of control (dose: 25.0 mg/kg/injection, schedule: Q01DX009 (ip), vehicle: Klucel (hydroxypropylcellulose) (HPC)); 102 % of control (dose: 50.0 mg/kg/injection, schedule: Q01DX009 (ip), vehicle: Klucel (hydroxypropylcellulose) (HPC)); 113 % of control (dose: 75.0 mg/kg/injection, schedule: Q04DX003 (ip), vehicle: saline with Tween-80). Moreover, the T/C was 156 % of control under setting [10]; 121 % of control under setting [6]; 164 % of control (dose: 150.0 mg/kg/injection, schedule: Q04DX003 (ip), vehicle: saline with Tween-80); 153 % of control (dose: 337.0 mg/kg/injection, schedule: Q04DX003 (ip), vehicle: saline with Tween-80).
For the molecule `C[n+]1c(-c2cc(Cl)cc(Cl)c2)c2cc([N+](=O)[O-])ccc2c2ccccc21`, the T/C was 109 % of control (dose: 50.0 mg/kg/injection, schedule: Q01DX009 (ip), vehicle: water); 96 % of control (dose: 100.0 mg/kg/injection, schedule: Q01DX009 (ip), vehicle: water); 92 % of control (dose: 100.0 mg/kg/injection, schedule: Q04DX003 (ip), vehicle: water); 98 % of control (dose: 200.0 mg/kg/injection, schedule: Q01DX009 (ip), vehicle: water); 96 % of control (dose: 200.0 mg/kg/injection, schedule: Q04DX003 (ip), vehicle: water); 93 % of control (dose: 400.0 mg/kg/injection, schedule: Q04DX003 (ip), vehicle: water).
Take `O=C1CCCCCCCCCCC1Br` (stereo unspecified): the T/C was 110 % of control under setting [1]; 92 % of control under setting [6]; 95 % of control under setting [2]; 87 % of control under setting [7]; 87 % of control under setting [3]; 92 % of control under setting [8].
Turning to `CCOC(=O)COc1ccc([N+](=O)[O-])cc1`, the T/C runs as follows: (dose: 100.0 mg/kg/injection, schedule: Q01DX001 (ip), vehicle: Klucel (hydroxypropylcellulose) (HPC)) 112 % of control; under setting [10], 97 % of control and 98 % of control; under setting [11], 96 % of control and 101 % of control; under setting [9], 106 % of control; (dose: 200.0 mg/kg/injection, schedule: Q01DX001 (ip), vehicle: Klucel (hydroxypropylcellulose) (HPC)) 98 % of control; (dose: 200.0 mg/kg/injection, schedule: Q01DX009 (ip), vehicle: Klucel (hydroxypropylcellulose) (HPC)) 95 % of control and 105 % of control. Further, the T/C was 96 % of control and 103 % of control under setting [12]; 100 % of control under setting [4]; 106 % of control (dose: 400.0 mg/kg/injection, schedule: Q01DX001 (ip), vehicle: Klucel (hydroxypropylcellulose) (HPC)); 93 % of control and 101 % of control (dose: 400.0 mg/kg/injection, schedule: Q01DX009 (ip), vehicle: Klucel (hydroxypropylcellulose) (HPC)); 92 % of control and 102 % of control under setting [13]; 101 % of control under setting [5].
As to `Brc1cscc1Cc1ccccc1`, the T/C is 95 % of control (dose: 50.0 mg/kg/injection, schedule: Q01DX009 (ip), vehicle: saline with Tween-80); 95 % of control under setting [1]; 95 % of control under setting [2].
For the molecule `COC(=O)CC[S+](C)CCC(=O)OC`, the T/C (dose: 7.5 mg/kg/injection, schedule: Q04DX003 (ip), vehicle: saline) is 100 % of control; the T/C (dose: 15.0 mg/kg/injection, schedule: Q04DX003 (ip), vehicle: saline) is 107 % of control; the T/C (dose: 30.0 mg/kg/injection, schedule: Q04DX003 (ip), vehicle: saline) is 105 % of control.
For the molecule `Nc1ccc(C(=O)N/N=C/c2ccc(Cl)cc2Cl)cc1`, the T/C is, setting by setting: under setting [11], 93 % of control; under setting [12], 93 % of control.
As to `CSc1nc(N)c(N)c(N)n1`, the T/C reads like this: under setting [11], 103 % of control; under setting [12], 110 % of control; under setting [13], 103 % of control.
For the molecule `CC1(C)CC(=O)C2C(C1)Nc1ccccc1NC2c1cccc([N+](=O)[O-])c1` (stereo unspecified), the T/C was 109 % of control under setting [11] and 103 % of control under setting [12].
Regarding `CS(=O)(=NC(=S)Nc1ccccc1)c1ccccc1` (stereo unspecified), the T/C (dose: 75.0 mg/kg/injection, schedule: Q01DX009 (ip), vehicle: saline) was 97 % of control; the T/C (dose: 150.0 mg/kg/injection, schedule: Q01DX009 (ip), vehicle: saline) was 100 % of control; the T/C (dose: 300.0 mg/kg/injection, schedule: Q01DX009 (ip), vehicle: saline) is 100 % of control.
Turning to `O=c1[nH]cnc2ncccc12`, the T/C runs as follows: (dose: 100.0 mg/kg/injection, schedule: Q01DX001 (ip), vehicle: saline) 106 % of control; (dose: 200.0 mg/kg/injection, schedule: Q01DX001 (ip), vehicle: saline) 104 % of control.
Take `NC(=O)c1cc(Cl)cc(Cl)c1N1CC[N+](CCCl)=N1`: the T/C (dose: 100.0 mg/kg/injection, schedule: Q01DX001 (ip), vehicle: saline with Tween-80) was 103 % of control.

Source of the values: PubChem BioAssay AID248 (DTP/NCI, 2004).
